Key:
[1] = test system: Hepatotoxicity;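 on HepSE Combined Scores: combined hepatic side effect score as listed in the training data of the Drug Induced Liver Injury Prediction System (DILIps)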;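 on HepSE cholecystitis: Cholecystitis-related hepatic side effect score drawn from the DILIps (drug-induced liver injury prediction) training data set; call rule not given here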;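 on HepSE cholelithiasis: hepatic side effect score for cholelithiasis, drawn from the DILIps training data for predicting drug-induced liver injury; call rule not given here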;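 on HepSE elevated liver function tests: hepatic side effect score for raised liver function tests, as recorded in the DILIps training set used for predicting drug-induced liver injury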;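 on HepSE hepatitis: Hepatitis-related hepatic side effect score taken from the training data of DILIps, a prediction system for drug-induced liver injury; call rule not given here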;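 on HepSE hepatomegaly: hepatic side effect score for hepatomegaly, taken from the training set of the DILIps drug-induced liver injury prediction system; call rule not given here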
[2] = test system: Hepatotoxicity; remark: listed apart in the source;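 on HepSE Combined Scores: combined hepatic side effect score as listed in the training data of the Drug Induced Liver Injury Prediction System (DILIps)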;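 on HepSE cholecystitis: Cholecystitis-related hepatic side effect score drawn from the DILIps (drug-induced liver injury prediction) training data set; call rule not given here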;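 on HepSE cholelithiasis: hepatic side effect score for cholelithiasis, drawn from the DILIps training data for predicting drug-induced liver injury; call rule not given here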;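 on HepSE elevated liver function tests: hepatic side effect score for raised liver function tests, as recorded in the DILIps training set used for predicting drug-induced liver injury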;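 on HepSE hepatitis: Hepatitis-related hepatic side effect score taken from the training data of DILIps, a prediction system for drug-induced liver injury; call rule not given here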;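 on HepSE hepatomegaly: hepatic side effect score for hepatomegaly, taken from the training set of the DILIps drug-induced liver injury prediction system; call rule not given here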
[3] = test system: Hepatotoxicity; remark: listed apart in the source;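 on HepSE Combined Scores: combined hepatic side effect score as listed in the training data of the Drug Induced Liver Injury Prediction System (DILIps)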;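 on HepSE cholecystitis: Cholecystitis-related hepatic side effect score drawn from the DILIps (drug-induced liver injury prediction) training data set; call rule not given here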;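 on HepSE cholelithiasis: hepatic side effect score for cholelithiasis, drawn from the DILIps training data for predicting drug-induced liver injury; call rule not given here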;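 on HepSE elevated liver function tests: hepatic side effect score for raised liver function tests, as recorded in the DILIps training set used for predicting drug-induced liver injury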;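 on HepSE hepatitis: Hepatitis-related hepatic side effect score taken from the training data of DILIps, a prediction system for drug-induced liver injury; call rule not given here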;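 on HepSE hepatomegaly: hepatic side effect score for hepatomegaly, taken from the training set of the DILIps drug-induced liver injury prediction system; call rule not given here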
[4] = test system: Hepatotoxicity; remark: listed apart in the source;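 on HepSE cholecystitis: Cholecystitis-related hepatic side effect score drawn from the DILIps (drug-induced liver injury prediction) training data set; call rule not given here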;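 on HepSE cholelithiasis: hepatic side effect score for cholelithiasis, drawn from the DILIps training data for predicting drug-induced liver injury; call rule not given here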;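 on HepSE elevated liver function tests: hepatic side effect score for raised liver function tests, as recorded in the DILIps training set used for predicting drug-induced liver injury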;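 on HepSE hepatitis: Hepatitis-related hepatic side effect score taken from the training data of DILIps, a prediction system for drug-induced liver injury; call rule not given here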;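 on HepSE hepatomegaly: hepatic side effect score for hepatomegaly, taken from the training set of the DILIps drug-induced liver injury prediction system; call rule not given here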
[5] = test system: Hepatotoxicity; remark: listed apart in the source
[6] = test system: Hepatotoxicity; remark: listed apart in the source
[7] = test system: Hepatotoxicity; remark: listed apart in the source
[8] = test system: Hepatotoxicity; remark: listed apart in the source
[9] = test system: Hepatotoxicity; remark: listed apart in the source
[10] = test system: Hepatotoxicity; remark: listed apart in the source
[11] = test system: Hepatotoxicity; remark: listed apart in the source
[12] = test system: Hepatotoxicity; remark: listed apart in the source
[13] = test system: Hepatotoxicity; remark: listed apart in the source
[14] = test system: Hepatotoxicity; remark: listed apart in the source

For `C=C1C[C@@H]2[C@H](CC[C@]3(C)C(=O)CC[C@@H]23)[C@@]2(C)C=CC(=O)C=C12` [EXEMESTANE], the HepSE_hepatitis [1] was 1, the “HepSE_elevated liver function tests” value [2] was 0 and the HepSE_cholecystitis [3] was 0. The HepSE_bilirubinemia [4] was 0, the HepSE_hepatomegaly [5] was 0 and the HepSE_cholelithiasis [6] was 0. The “HepSE_Combined Scores” value [7] was 1, the HepSE_hepatic failure [8] was 0 and the HepSE_liver disease [9] was 0. For the same molecule, the HepSE_liver fatty [10] was 0, the “HepSE_liver function tests abnormal” value [11] was 0 and the HepSE_hepatic necrosis [12] was 0. It also gave a HepSE_jaundice [13] of 0 and a HepSE_cirrhosis [14] of 0.

`CN(C)CCc1c[nH]c2ccc(C[C@H]3COC(=O)N3)cc12` [ZOLMITRIPTAN] was tested, and the HepSE_hepatitis [1] was 0, the “HepSE_elevated liver function tests” value [2] was 0 and the HepSE_cholecystitis [3] was 0. It also gave a HepSE_bilirubinemia [4] of 0, a HepSE_hepatomegaly [5] of 0 and a HepSE_cholelithiasis [6] of 0. For the same molecule, the “HepSE_Combined Scores” value [7] was 2, the HepSE_hepatic failure [8] was 0 and the HepSE_liver disease [9] was 1. The HepSE_liver fatty [10] was 0, the “HepSE_liver function tests abnormal” value [11] was 0 and the HepSE_hepatic necrosis [12] was 0. The HepSE_jaundice [13] was 1 and the HepSE_cirrhosis [14] was 0.

For `CCN(CC)CCNC(=O)c1c(C)[nH]c(/C=C2\C(=O)Nc3ccc(F)cc32)c1C` [SUNITINIB], the HepSE_hepatitis [1] was 0, the “HepSE_elevated liver function tests” value [2] was 0 and the HepSE_cholecystitis [3] was 0. The HepSE_bilirubinemia [4] was 0, the HepSE_hepatomegaly [5] was 0 and the HepSE_cholelithiasis [6] was 0. For the same molecule, the “HepSE_Combined Scores” value [7] was 2, the HepSE_hepatic failure [8] was 1 and the HepSE_liver disease [9] was 0. The HepSE_liver fatty [10] was 0, the “HepSE_liver function tests abnormal” value [11] was 0 and the HepSE_hepatic necrosis [12] was 0. For the same molecule, the HepSE_jaundice [13] was 1 and the HepSE_cirrhosis [14] was 0.

With `CCN(CC)CCOC(=O)c1ccc(N)cc1Cl` [CHLOROPROCAINE] the HepSE_hepatitis [1] was 0, the “HepSE_elevated liver function tests” value [2] was 0 and the HepSE_cholecystitis [3] was 0. The HepSE_bilirubinemia [4] was 0, the HepSE_hepatomegaly [5] was 0 and the HepSE_cholelithiasis [6] was 0. The “HepSE_Combined Scores” value [7] was 0, the HepSE_hepatic failure [8] was 0 and the HepSE_liver disease [9] was 0. For the same molecule, the HepSE_liver fatty [10] was 0, the “HepSE_liver function tests abnormal” value [11] was 0 and the HepSE_hepatic necrosis [12] was 0. For the same molecule, the HepSE_jaundice [13] was 0 and the HepSE_cirrhosis [14] was 0.

With `COc1ccc2c3c1O[C@H]1C[C@@H](O)C=C[C@@]31CCN(C)C2` [GALANTAMINE] the HepSE_hepatitis [1] was 1, the “HepSE_elevated liver function tests” value [2] was 0 and the HepSE_cholecystitis [3] was 0. The HepSE_bilirubinemia [4] was 0, the HepSE_hepatomegaly [5] was 0 and the HepSE_cholelithiasis [6] was 0. For the same molecule, the “HepSE_Combined Scores” value [7] was 1, the HepSE_hepatic failure [8] was 0 and the HepSE_liver disease [9] was 0. For the same molecule, the HepSE_liver fatty [10] was 0, the “HepSE_liver function tests abnormal” value [11] was 0 and the HepSE_hepatic necrosis [12] was 0. For the same molecule, the HepSE_jaundice [13] was 0 and the HepSE_cirrhosis [14] was 0.

With `O=NN(CCCl)C(=O)NC1CCCCC1` [LOMUSTINE] the HepSE_hepatitis [1] was 0, the “HepSE_elevated liver function tests” value [2] was 0 and the HepSE_cholecystitis [3] was 0. For the same molecule, the HepSE_bilirubinemia [4] was 0, the HepSE_hepatomegaly [5] was 0 and the HepSE_cholelithiasis [6] was 0. For the same molecule, the “HepSE_Combined Scores” value [7] was 0, the HepSE_hepatic failure [8] was 0 and the HepSE_liver disease [9] was 0. The HepSE_liver fatty [10] was 0, the “HepSE_liver function tests abnormal” value [11] was 0 and the HepSE_hepatic necrosis [12] was 0. For the same molecule, the HepSE_jaundice [13] was 0 and the HepSE_cirrhosis [14] was 0.

In the case of `CC(C)[C@H]1CC[C@H](C(=O)N[C@H](Cc2ccccc2)C(=O)O)CC1` [NATEGLINIDE], the HepSE_hepatitis [1] is reported as 1, the “HepSE_elevated liver function tests” value [2] is reported as 0 and the HepSE_cholecystitis [3] is reported as 0. For the same molecule, the HepSE_bilirubinemia [4] was 0, the HepSE_hepatomegaly [5] was 0 and the HepSE_cholelithiasis [6] was 0. The “HepSE_Combined Scores” value [7] was 3, the HepSE_hepatic failure [8] was 0 and the HepSE_liver disease [9] was 1. The HepSE_liver fatty [10] was 0, the “HepSE_liver function tests abnormal” value [11] was 0 and the HepSE_hepatic necrosis [12] was 0. For the same molecule, the HepSE_jaundice [13] was 1 and the HepSE_cirrhosis [14] was 0.

With `CCCCCN(C)CCC(O)(P(=O)(O)O)P(=O)(O)O` [IBANDRONIC ACID] the HepSE_hepatitis [1] was 0, the “HepSE_elevated liver function tests” value [2] was 0 and the HepSE_cholecystitis [3] was 0. The HepSE_bilirubinemia [4] was 0, the HepSE_hepatomegaly [5] was 0 and the HepSE_cholelithiasis [6] was 0. The “HepSE_Combined Scores” value [7] was 0, the HepSE_hepatic failure [8] was 0 and the HepSE_liver disease [9] was 0. For the same molecule, the HepSE_liver fatty [10] was 0, the “HepSE_liver function tests abnormal” value [11] was 0 and the HepSE_hepatic necrosis [12] was 0. It also gave a HepSE_jaundice [13] of 0 and a HepSE_cirrhosis [14] of 0.

`CC(C)N(CCC(C(N)=O)(c1ccccc1)c1ccccn1)C(C)C` (stereo unspecified) [DISOPYRAMIDE] was tested, and the HepSE_hepatitis [1] was 0, the “HepSE_elevated liver function tests” value [2] was 0 and the HepSE_cholecystitis [3] was 0. The HepSE_bilirubinemia [4] was 0, the HepSE_hepatomegaly [5] was 0 and the HepSE_cholelithiasis [6] was 0. The “HepSE_Combined Scores” value [7] was 1, the HepSE_hepatic failure [8] was 0 and the HepSE_liver disease [9] was 0. For the same molecule, the HepSE_liver fatty [10] was 0, the “HepSE_liver function tests abnormal” value [11] was 0 and the HepSE_hepatic necrosis [12] was 0. For the same molecule, the HepSE_jaundice [13] was 1 and the HepSE_cirrhosis [14] was 0.
